Data taken from the supplement of paper PMC10307832.

Key:
Assay in all cases: relative viability (nuclei count vs DMSO), 5 days (fraction); higher = more cells survive
NCI-H1648 = tested on: NCI-H1648
Procedure, shortened: (§1)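 Lung cancer cell lines were pin-tool dosed in 1536-well plates on the day after seeding, with either a lone drug or a fixed anchor-drug dose plus five library-drug doses (not always all listed) in √10 steps. Nuclei were counted on 4× images after 5 days. Relative viability is the ratio of treated-well to vehicle-well nuclei counts, with each value a median of duplicate plates.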

NCI-H2170 = tested on: NCI-H2170
Procedure, shortened: as §1

NCI-H1703 = tested on: NCI-H1703
Procedure, shortened: as §1

NCI-H727 = tested on: NCI-H727
Procedure, shortened: as §1

NCI-H2023 = tested on: NCI-H2023
Procedure, shortened: as §1

NCI-H520 = tested on: NCI-H520
Procedure, shortened: as §1

IA-LM = tested on: IA-LM
Procedure, shortened: as §1

A549 = tested on: A549
Procedure, shortened: as §1

SMILES: Cc1csc(=NC2CCCCC2)n1/N=C/c1ccc(O)c(O)c1O [MIM1] + NC(=O)Nc1cc(-c2cccc(F)c2)sc1C(=O)N[C@H]1CCCNC1 [AZD7762] (partner 0.2 µM)
- relative viability (NCI-H1648; first compound 0.2 µM): 0.615
- relative viability (NCI-H1648; first compound 0.6325 µM): 0.718
- relative viability (NCI-H1648; first compound 2 µM): 0.679
- relative viability (NCI-H1648; first compound 6.325 µM): 0.677
- relative viability (NCI-H1648; first compound 20 µM): 0.436
- relative viability (NCI-H2170; first compound 0.2 µM): 0.857
- relative viability (NCI-H2170; first compound 0.6325 µM): 0.826
- relative viability (NCI-H2170; first compound 2 µM): 0.759
- relative viability (NCI-H2170; first compound 6.325 µM): 0.368
- relative viability (NCI-H2170; first compound 20 µM): 0.158
- relative viability (NCI-H1703; first compound 0.2 µM): 0.124
- relative viability (NCI-H1703; first compound 0.6325 µM): 0.134
- relative viability (NCI-H1703; first compound 2 µM): 0.107
- relative viability (NCI-H1703; first compound 6.325 µM): 0.112
- relative viability (NCI-H1703; first compound 20 µM): 0.122
- relative viability (NCI-H727; first compound 0.2 µM): 0.663
- relative viability (NCI-H727; first compound 0.6325 µM): 0.573
- relative viability (NCI-H727; first compound 2 µM): 0.435
- relative viability (NCI-H727; first compound 6.325 µM): 0.528
- relative viability (NCI-H727; first compound 20 µM): 0.348

SMILES: CN1CCN(CCOc2cc(OC3CCOCC3)c3c(Nc4c(Cl)ccc5c4OCO5)ncnc3c2)CC1 [Saracatinib] + O=C(CCCCCCC(=O)Nc1ccccc1)NO [Vorinostat] (partner 1 µM)
- relative viability (NCI-H1648; first compound 0.02 µM): 0.338
- relative viability (NCI-H1648; first compound 0.2 µM): 0.352
- relative viability (NCI-H1648; first compound 0.6325 µM): 0.782
- relative viability (NCI-H1648; first compound 2 µM): 0.433
- relative viability (NCI-H2170; first compound 0.02 µM): 0.746
- relative viability (NCI-H2170; first compound 0.2 µM): 0.678
- relative viability (NCI-H2170; first compound 0.6325 µM): 0.93
- relative viability (NCI-H2170; first compound 2 µM): 0.571
- relative viability (NCI-H2023; first compound 0.02 µM): 0.652
- relative viability (NCI-H2023; first compound 0.2 µM): 0.591
- relative viability (NCI-H2023; first compound 0.6325 µM): 0.73
- relative viability (NCI-H2023; first compound 2 µM): 0.566
- relative viability (NCI-H520; first compound 0.02 µM): 0.652
- relative viability (NCI-H520; first compound 0.2 µM): 0.471
- relative viability (NCI-H520; first compound 0.6325 µM): 0.598
- relative viability (NCI-H520; first compound 2 µM): 0.477
- relative viability (IA-LM; first compound 0.02 µM): 1.01
- relative viability (IA-LM; first compound 0.6325 µM): 1.4
- relative viability (IA-LM; first compound 2 µM): 0.798
- relative viability (NCI-H727; first compound 0.02 µM): 1.12
- relative viability (NCI-H727; first compound 0.2 µM): 0.996
- relative viability (NCI-H727; first compound 0.6325 µM): 1.23
- relative viability (NCI-H727; first compound 2 µM): 0.888

SMILES: CCNC(=O)c1noc(-c2cc(C(C)C)c(O)cc2O)c1-c1ccc(CN2CCOCC2)cc1 [Luminespib] + Nc1ncn([C@H]2C[C@H](O)[C@@H](CO)O2)c(=O)n1 [Decitabine] (partner 2 µM)
- relative viability (NCI-H1648; first compound 0.002 µM): 0.534
- relative viability (NCI-H1648; first compound 0.006325 µM): 0.569
- relative viability (NCI-H1648; first compound 0.02 µM): 0.458
- relative viability (NCI-H1648; first compound 0.06325 µM): 0.489
- relative viability (NCI-H1648; first compound 0.2 µM): 0.301
- relative viability (NCI-H2170; first compound 0.002 µM): 0.468
- relative viability (NCI-H2170; first compound 0.006325 µM): 0.456
- relative viability (NCI-H2170; first compound 0.06325 µM): 0.47
- relative viability (NCI-H2170; first compound 0.2 µM): 0.507
- relative viability (NCI-H2023; first compound 0.002 µM): 0.242
- relative viability (NCI-H2023; first compound 0.006325 µM): 0.218
- relative viability (NCI-H2023; first compound 0.02 µM): 0.136
- relative viability (NCI-H2023; first compound 0.06325 µM): 0.0602
- relative viability (NCI-H2023; first compound 0.2 µM): 0.0539
- relative viability (A549; first compound 0.002 µM): 0.232
- relative viability (A549; first compound 0.006325 µM): 0.297
- relative viability (A549; first compound 0.02 µM): 0.191
- relative viability (A549; first compound 0.06325 µM): 0.0306
- relative viability (A549; first compound 0.2 µM): 0.0224
- relative viability (NCI-H520; first compound 0.002 µM): 0.533
- relative viability (NCI-H520; first compound 0.006325 µM): 0.506
- relative viability (NCI-H520; first compound 0.02 µM): 0.317
- relative viability (NCI-H520; first compound 0.06325 µM): 0.167
- relative viability (NCI-H520; first compound 0.2 µM): 0.152
- relative viability (NCI-H727; first compound 0.002 µM): 0.893
- relative viability (NCI-H727; first compound 0.006325 µM): 0.857
- relative viability (NCI-H727; first compound 0.02 µM): 0.652
- relative viability (NCI-H727; first compound 0.06325 µM): 0.461
- relative viability (NCI-H727; first compound 0.2 µM): 0.368

SMILES: Cc1cn(-c2cc(NC(=O)c3ccc(C)c(Nc4nccc(-c5cccnc5)n4)c3)cc(C(F)(F)F)c2)cn1 [Nilotinib] + Nc1ncn([C@H]2C[C@H](O)[C@@H](CO)O2)c(=O)n1 [Decitabine] (partner 2 µM)
- relative viability (NCI-H1648; first compound 0.001 µM): 0.588
- relative viability (NCI-H1648; first compound 0.003162 µM): 0.496
- relative viability (NCI-H1648; first compound 0.01 µM): 0.476
- relative viability (NCI-H1648; first compound 0.03162 µM): 0.497
- relative viability (NCI-H1648; first compound 0.1 µM): 0.469
- relative viability (NCI-H2170; first compound 0.001 µM): 0.488
- relative viability (NCI-H2170; first compound 0.003162 µM): 0.553
- relative viability (NCI-H2170; first compound 0.01 µM): 0.539
- relative viability (NCI-H2170; first compound 0.03162 µM): 0.56
- relative viability (NCI-H2170; first compound 0.1 µM): 0.649
- relative viability (NCI-H2023; first compound 0.001 µM): 0.245
- relative viability (NCI-H2023; first compound 0.003162 µM): 0.296
- relative viability (NCI-H2023; first compound 0.01 µM): 0.334
- relative viability (NCI-H2023; first compound 0.03162 µM): 0.271
- relative viability (NCI-H2023; first compound 0.1 µM): 0.298
- relative viability (A549; first compound 0.001 µM): 0.199
- relative viability (A549; first compound 0.01 µM): 0.386
- relative viability (A549; first compound 0.03162 µM): 0.198
- relative viability (A549; first compound 0.1 µM): 0.116
- relative viability (NCI-H520; first compound 0.001 µM): 0.473
- relative viability (NCI-H520; first compound 0.003162 µM): 0.653
- relative viability (NCI-H520; first compound 0.01 µM): 0.613
- relative viability (NCI-H520; first compound 0.03162 µM): 0.564
- relative viability (NCI-H520; first compound 0.1 µM): 0.649
- relative viability (NCI-H727; first compound 0.001 µM): 0.67
- relative viability (NCI-H727; first compound 0.003162 µM): 0.818
- relative viability (NCI-H727; first compound 0.01 µM): 0.825
- relative viability (NCI-H727; first compound 0.03162 µM): 0.715
- relative viability (NCI-H727; first compound 0.1 µM): 0.606
